“And” between values parts separate entries of the source, which are not always exact repeats. Equal entries are not always repeated.
Key:
[1] = cited from earlier work
[2] = Filterability of ddCTP/PSC (filtration yield); format: physicochemical; conditions: ddCTP with or without cationic PSC

Filtration yield % [2] [%] | Compound | pKa [1]
 | COc1cccc2c1C(=O)c1c(O)c3c(c(O)c1C2=O)C[C@@](O)(C(=O)CO)C[C@@H]3O[C@H]1C[C@H](N)[C@H](O)[C@H](C)O1 [Doxorubicin] | 8.5 and 8.2-8.5
99.4 ± 0.8 | dideoxy cytidine triphosphate [Free ddCTP] | 

Reference: patent US6759060B2, “Synthetic particulate vectors and preparation process” (Biovector Therapeutics, S.A., priority 1993, dated 2004)
